Patent publication US7714014B2, “Targeting GLI proteins in human cancer by small molecules” (The Regents of the University of California, priority 2005, dated 2010)

Legend:
NSCLC A549 tumor = test: Mouse Xenograft Model (NSCLC A549); format: in vivo; details: 15 mg/kg daily 2×6 days then 30 mg/kg daily 1×6 days i.p.; 43 days after inoculation
Experimental: The small molecule compound FN1-8 was tested in vivo in the mouse xenograft model bearing human cancer cells. Briefly, female athymic nude mice strain NCRNU-M (5-10 weeks old, 20-25 grams in weight; Taconic, Germantown, N.Y.) was maintained in pathogen-free conditions. Three human cancer cell lines: NSCLC H460, melanoma LOX, (both showing Gli3 activation), and colon cancer HT29 (no Gli3 activation, as a negative control), were used. Ten mice were used in each group and injected s.c. with 3×10^6 cancer cells in the dorsal area in a volume of 100 μl. After inoculation, human cancer cells were allowed to grow in mice for 7 days to become visible tumor nodules. Animals were then injected with small molecule compound FN1-8 at a dose of 50 mg/kg body weight (1 mg/mouse per day). DMSO alone was used as control. The compounds and controls were adjusted in 40 ul volume for i.p. injection in the abdomens of the mice. One mouse was sacrificed within 1 hour after the compound injection (after 6 injections) and its blood was collected. […] Tumor size was measured every three days, and tumor volumes were calculated using width (x) and length (y) (x^2y/2, where x<y). […]
In vivo efficacy study ofFN1-8 in Mouse Xenograft Model (NSCLC A549) was also examined. […] 43 days after the initial tumor inoculation, tumors were dissected from the mice of each group and their weights were measured using a scale. […]

[1] = system: human renal cell carcinoma cell lines 786-O, Caki, and OMRC3; test: Cell survival assay (crystal violet); format: cell-based; details: for cell killing: 50 μM
Experimental: (§1) Typically, the small molecule compounds of the present invention were dissolved in DMSO at a concentration of 30 mM. The small molecule compounds were then tested under cell culture conditions at different concentrations ranging from 0, 10, 30, 50, to 100 uM. To determine cell survival after treatment, the cells were incubated with the small molecule compounds in 6-well plates for about 3 days. After removal of the cell culture medium, 1-ml of 0.5% crystal violet solution (prepared in 20% ethanol and 20% methanol) was added to stain the cells for 5 min. Then the crystal violet solution was rinsed clean with tap water. Cell survival was estimated based on the density of crystal stained plates.
The cell-based cytotoxicity assay described herein was used to determine the effect of small molecule compounds FN1-5 and FN1-8 in the human renal cell carcinoma cell lines 786-O, Caki, and OMRC3. Viability of these cells was analyzed after treatment with 10, 30 and 50 μM FN1-5 or FN1-8.

[2] = system: Hedgehog signaling pathway in HT29 tumor; test: Semi-quantitative RT-PCR of Hh pathway genes in xenograft tumors; format: in vivo, mouse; details: HT29 xenograft tumor (negative control)
Experimental: (§2) To examine whether the lead compound FN1-8 suppressed tumor growth through inhibition of the Hedgehog signaling pathway in vivo, expression of the key components and direct target genes of the Hh pathway (e.g., Shh, Ptch1, Gli1, Gli2, Gli3, Dvl-3) were analyzed by semi-quantitative RT-PCR using total RNA isolated from the xenograft tumors. GAPDH served as a control. This RT-PCR analysis was performed using a “pooled” tumor from two randomly selected mice of each group with reasonable size tumors.

[3] = system: Hedgehog signaling pathway in NSCLC tumor (H460); test: as above; format: in vivo, mouse
Experimental: as §2

[4] = system: NSCLC cell lines A549, H358, and H322; test: Dose titration, cell killing; format: cell-based, human; details: 7.5-30 μM tested, 3 days
Experimental: as §1
Dose titration experiments of small molecule compound FN1-8 was performed using the NSCLC cell lines A549, H358, and H322. A 549, H358, and H322 cells were plated in 6-well plates and incubated with DM SO (control) or 7.5 μM, 10 μM, 15 μM, 20 μM, and 30 μM of FN1-8, respectively, for 3 days. A dramatic and dose-dependent cell killing in these cell lines was observed when FN1-8 was added at 15 μM or more. FN1-8 induced cell killing in A549 and […] at slightly lower concentrations than in H322 cells (data not shown). After 3 days, approximately 28% of the A549 cells and 58% of H358 underwent apoptosis when incubated with 20 μM FN1-8 (Table 3).

H1299 (NSCLC) = test: Apoptosis analysis (Annexin V FITC, flow cytometry); format: cell-based, human; details: 3 days
Experimental: (§3) Apoptosis was analyzed by using an Annexin V FITC Apoptosis Detection Kit (Biosource, Camarillo, Calif.), according to the manufacturer's protocol. After treatment with different small molecule compounds at various concentrations for about 3 days, cells were harvested by trypsinization, stained and immediately analyzed by flow cytometry (FACScan; Decton Dickinson, Franklin Lake, N.J.). Early apoptotic cells with exposed phosphatidylserine but intact cell membranes will bind to Annexin V-FITC, but not propidium iodide (PI). Cells in necrotic or late apoptotic stages will be labeled with both Annexin V-FITC and PI. “% apoptotic cells” or “% apoptosis” refers to the combined early and late apoptotic cells.
Flow cytometry was also used to examine apoptosis in several NSCLC cell lines after treatment with small molecule compounds of the invention.

SW480 (colon cancer) = test: as above; format: cell-based, human; details: 3 days
Experimental: as §3
Flow cytometry was used to examine apoptosis in colon cancer cells after treatment of cells with small molecule compounds of the invention.

SMILES	tumor weight (NSCLC A549 tumor)	cell killing potency compared with FN1-5 [1]	cell killing [1]	Hh signaling in tumor (RT-PCR) [2]	Hh signaling in tumor (RT-PCR) [3]	concentration at which dramatic and dose-dependent cell killing was observed [4] [µM]	% of apoptotic cells (H1299 (NSCLC); H1299, 10 μM) [%]	% of apoptotic cells (H1299 (NSCLC); H1299, 100 μM) [%]	% of apoptotic cells (SW480 (colon cancer); SW480, 10 μM) [%]	% of apoptotic cells (SW480 (colon cancer); SW480, 100 μM) [%]
O=C(NCCc1ccc(O)cc1)C1C(c2ccccc2)=NN(c2ccccc2)C1c1ccccc1 (centres unmarked) [FN1-8, N-(2-(4-Hydroxyphenyl)ethyl)-1,3,5-triphenyl-4,5-dihydro-pyrazole-4-carboxyamide]	decreased	more potent	dramatic cell killing	no noticeable changes	inhibited	≥ 15	–	–	–	–
O=C(NCCCCCO)C1C(c2ccccc2)=NN(c2ccccc2)C1c1ccccc1 (centres unmarked) [FN1-5, N-(5-Hydroxypentyl)-1,3,5-triphenyl-4,5-dihydro-pyrazole-4-carboxyamide]	–	–	dramatic cell killing	–	–	–	6.7	55.9	10.8	58.6
